Source: paper PMC9107566, “Metabolic engineering of Escherichia coli for efficient degradation of 4-fluorophenol” (AMB Express, 2022)

Molecular target: T1, FpdA2 (Arthrobacter sp. IF1, UniProt D1MYT1)
T1 construct: co-expressed with flavin reductase FpdB, FpdC and FpdD; not purified
T1 sequence (D1MYT1 1-535): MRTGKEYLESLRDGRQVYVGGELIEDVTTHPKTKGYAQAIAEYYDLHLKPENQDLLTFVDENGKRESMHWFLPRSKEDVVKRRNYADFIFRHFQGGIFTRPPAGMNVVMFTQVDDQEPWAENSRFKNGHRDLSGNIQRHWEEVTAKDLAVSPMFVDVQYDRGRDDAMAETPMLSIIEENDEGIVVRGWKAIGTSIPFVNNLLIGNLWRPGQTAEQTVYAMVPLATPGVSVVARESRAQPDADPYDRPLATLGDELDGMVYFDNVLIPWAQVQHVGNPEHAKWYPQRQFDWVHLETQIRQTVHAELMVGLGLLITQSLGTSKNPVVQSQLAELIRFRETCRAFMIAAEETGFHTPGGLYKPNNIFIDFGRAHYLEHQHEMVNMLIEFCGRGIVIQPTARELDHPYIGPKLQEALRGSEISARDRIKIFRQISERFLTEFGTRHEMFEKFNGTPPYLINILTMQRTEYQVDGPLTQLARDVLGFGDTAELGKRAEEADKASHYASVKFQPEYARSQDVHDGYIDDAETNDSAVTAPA
Experiment: whole-cell degradation by BL-fpd, HPLC of substrate
Format: cell-based
Conditions: 2 mM substrate, 10 uM FAD added, 37 C, 3 h; induced cells co-expressing FpdB, FpdC, FpdD; empty-vector strain BL-control as control

Oc1ccc(Br)cc1 [4-bromophenol]
whole-cell degradation by BL-fpd, HPLC of substrate: FpdA2 showed the highest activity towards 4-bromophenol among the substrates tested
